# Test results from ChEMBL document CHEMBL5385861, “Development of novel hydrazidoarylaminopyrimidine-based BTK/FLT3 dual inhibitors with potent in vivo anti-hematological malignancies effects” (Eur J Med Chem, 2023).
# The source made the active and inactive calls. No cut-off for these calls is given here.
# Tests used:
# [1] = tested on: JeKo-1; test: Induction of apoptosis in human JeKo-1 cells assessed as early apoptotic cells at 150 nM incubated for 72 hrs by Annexin VFITC/PI staining based flow cytometry analysis (reference value: 3.10%); format: functional
# [2] = tested on: MV4-11; test: Antitumor activity against human MV4-11 cells xenografted in ip dosed NOD/SCID mouse assessed as suppression of tumor growth administered once daily for 21 days; format: functional, organism-based; conditions: dose 10-20 mg/kg, time 21.0 day
# [3] = target: RAF proto-oncogene serine/threonine-protein kinase (Homo sapiens) (UniProt P04049); test: Inhibition of c-RAF (unknown origin) at 0.2 uM incubated for 40 mins by radiometric kinase assay relative to control
# RAF proto-oncogene serine/threonine-protein kinase (Homo sapiens), sequence (P04049 whole entry): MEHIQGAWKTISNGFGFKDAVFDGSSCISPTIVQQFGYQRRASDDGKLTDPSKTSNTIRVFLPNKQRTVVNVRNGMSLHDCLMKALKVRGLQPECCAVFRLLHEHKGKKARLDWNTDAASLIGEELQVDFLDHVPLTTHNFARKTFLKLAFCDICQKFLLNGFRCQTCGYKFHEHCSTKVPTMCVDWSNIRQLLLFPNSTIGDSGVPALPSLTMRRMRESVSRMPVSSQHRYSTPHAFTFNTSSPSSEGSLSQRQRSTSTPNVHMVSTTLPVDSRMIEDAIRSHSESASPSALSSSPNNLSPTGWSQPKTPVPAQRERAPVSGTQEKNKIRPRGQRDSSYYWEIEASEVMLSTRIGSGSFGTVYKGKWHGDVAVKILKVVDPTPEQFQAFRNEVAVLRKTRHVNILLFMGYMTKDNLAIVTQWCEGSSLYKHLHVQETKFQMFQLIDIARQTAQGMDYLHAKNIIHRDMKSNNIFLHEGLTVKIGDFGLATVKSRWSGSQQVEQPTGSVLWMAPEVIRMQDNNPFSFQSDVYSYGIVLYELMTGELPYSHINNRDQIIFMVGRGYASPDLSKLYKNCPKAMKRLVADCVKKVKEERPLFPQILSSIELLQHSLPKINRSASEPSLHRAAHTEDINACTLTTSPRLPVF
# [4] = tested on: Receptor-type tyrosine-protein kinase FLT3 (Homo sapiens), P36888 [D835Y]; test: Inhibition of FLT3 D835Y mutant (unknown origin) at 0.2 uM incubated for 40 mins by radiometric kinase assay relative to control
# [5] = target: Cytoplasmic tyrosine-protein kinase BMX (Homo sapiens) (UniProt P51813); test: Inhibition of BMX (unknown origin) at 0.2 uM incubated for 40 mins by radiometric kinase assay relative to control
# Cytoplasmic tyrosine-protein kinase BMX (Homo sapiens), sequence (P51813 whole entry): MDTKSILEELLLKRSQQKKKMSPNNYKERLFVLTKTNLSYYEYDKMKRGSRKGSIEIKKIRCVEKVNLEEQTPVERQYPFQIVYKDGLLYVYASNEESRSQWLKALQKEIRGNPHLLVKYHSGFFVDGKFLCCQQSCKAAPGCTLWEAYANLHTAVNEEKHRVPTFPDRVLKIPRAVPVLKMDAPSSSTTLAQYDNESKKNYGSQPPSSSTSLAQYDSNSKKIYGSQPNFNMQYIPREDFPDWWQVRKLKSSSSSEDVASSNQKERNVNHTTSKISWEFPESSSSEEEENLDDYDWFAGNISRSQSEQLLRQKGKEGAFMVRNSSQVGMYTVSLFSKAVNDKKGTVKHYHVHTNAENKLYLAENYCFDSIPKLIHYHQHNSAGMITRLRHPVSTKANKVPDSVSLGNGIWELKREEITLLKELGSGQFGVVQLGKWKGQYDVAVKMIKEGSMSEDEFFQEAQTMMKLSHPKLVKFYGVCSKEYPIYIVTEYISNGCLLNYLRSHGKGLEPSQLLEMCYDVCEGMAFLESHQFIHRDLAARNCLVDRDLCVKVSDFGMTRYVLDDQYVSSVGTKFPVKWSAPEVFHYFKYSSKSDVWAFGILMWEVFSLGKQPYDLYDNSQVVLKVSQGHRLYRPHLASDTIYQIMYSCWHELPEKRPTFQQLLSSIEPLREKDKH
# [6] = target: Epidermal growth factor receptor (Homo sapiens) (UniProt P00533); test: Inhibition of EGFR (unknown origin) at 0.2 uM incubated for 40 mins by radiometric kinase assay relative to control
# Epidermal growth factor receptor (Homo sapiens), sequence (P00533 whole entry): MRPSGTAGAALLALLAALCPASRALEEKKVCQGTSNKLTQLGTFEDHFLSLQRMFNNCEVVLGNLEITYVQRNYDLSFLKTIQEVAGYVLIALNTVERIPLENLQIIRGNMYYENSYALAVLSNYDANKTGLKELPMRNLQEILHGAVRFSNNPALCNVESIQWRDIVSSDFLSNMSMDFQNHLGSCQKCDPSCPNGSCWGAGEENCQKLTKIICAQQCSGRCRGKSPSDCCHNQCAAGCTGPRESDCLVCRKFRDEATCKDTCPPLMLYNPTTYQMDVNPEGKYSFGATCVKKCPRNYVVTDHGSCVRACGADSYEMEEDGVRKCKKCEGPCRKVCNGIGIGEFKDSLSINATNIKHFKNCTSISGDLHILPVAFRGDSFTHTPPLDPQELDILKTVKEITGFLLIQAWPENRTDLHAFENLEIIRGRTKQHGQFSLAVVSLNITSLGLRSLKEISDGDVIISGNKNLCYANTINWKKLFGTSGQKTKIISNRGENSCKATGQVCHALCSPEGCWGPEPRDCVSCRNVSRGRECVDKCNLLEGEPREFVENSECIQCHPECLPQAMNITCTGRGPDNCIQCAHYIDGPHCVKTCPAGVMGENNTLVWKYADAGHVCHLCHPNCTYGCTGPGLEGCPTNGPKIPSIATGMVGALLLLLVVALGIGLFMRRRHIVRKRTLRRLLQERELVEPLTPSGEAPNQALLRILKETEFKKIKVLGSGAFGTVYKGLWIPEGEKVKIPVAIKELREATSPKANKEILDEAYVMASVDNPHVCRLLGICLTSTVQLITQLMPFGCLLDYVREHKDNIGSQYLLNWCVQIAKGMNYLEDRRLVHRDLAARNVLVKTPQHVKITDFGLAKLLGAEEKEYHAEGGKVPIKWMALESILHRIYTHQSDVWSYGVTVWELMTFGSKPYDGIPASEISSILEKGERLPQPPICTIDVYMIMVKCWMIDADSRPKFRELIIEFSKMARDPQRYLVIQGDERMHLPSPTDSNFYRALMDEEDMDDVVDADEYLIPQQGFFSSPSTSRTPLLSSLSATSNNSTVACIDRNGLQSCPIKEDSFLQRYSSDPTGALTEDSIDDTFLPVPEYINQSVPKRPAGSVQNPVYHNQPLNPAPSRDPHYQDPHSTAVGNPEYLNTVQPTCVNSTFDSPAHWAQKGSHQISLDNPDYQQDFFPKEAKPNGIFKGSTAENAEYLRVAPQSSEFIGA
# [7] = tested on: MV4-11; test: Potency index, ratio of spebrutinib IC50 to test compound IC50 for antiproliferative activity against human MV4-11 cells; format: functional
# [8] = tested on: MOLT-4; test: Potency index, ratio of ibrutinib IC50 to test compound IC50 for antiproliferative activity against human MOLT-4 cells; format: functional
# [9] = tested on: MV4-11; test: Potency index, ratio of ibrutinib IC50 to test compound IC50 for antiproliferative activity against human MV4-11 cells; format: functional
# [10] = tested on: MOLT-4; test: Potency index, ratio of sorafenib IC50 to test compound IC50 for antiproliferative activity against human MOLT-4 cells; format: functional
# [11] = target: Mitogen-activated protein kinase 13 (Homo sapiens) (UniProt O15264); test: Inhibition of SAPK4 (unknown origin) at 0.2 uM incubated for 40 mins by radiometric kinase assay relative to control
# Mitogen-activated protein kinase 13 (Homo sapiens), sequence (O15264 whole entry): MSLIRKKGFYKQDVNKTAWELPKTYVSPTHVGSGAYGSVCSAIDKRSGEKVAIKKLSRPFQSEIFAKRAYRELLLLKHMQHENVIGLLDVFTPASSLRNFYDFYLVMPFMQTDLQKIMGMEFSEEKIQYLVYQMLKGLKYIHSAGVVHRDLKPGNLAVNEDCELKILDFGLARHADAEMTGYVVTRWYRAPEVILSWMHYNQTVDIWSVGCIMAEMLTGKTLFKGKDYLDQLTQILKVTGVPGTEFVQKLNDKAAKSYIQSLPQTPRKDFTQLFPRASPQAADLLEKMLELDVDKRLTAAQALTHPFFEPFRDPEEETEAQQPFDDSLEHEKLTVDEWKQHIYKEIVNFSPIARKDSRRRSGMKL
# [12] = target: Dual specificity mitogen-activated protein kinase kinase 6 (Homo sapiens) (UniProt P52564); test: Inhibition of MKK6 (unknown origin) at 0.2 uM incubated for 40 mins by radiometric kinase assay relative to control
# Dual specificity mitogen-activated protein kinase kinase 6 (Homo sapiens), sequence (P52564 whole entry): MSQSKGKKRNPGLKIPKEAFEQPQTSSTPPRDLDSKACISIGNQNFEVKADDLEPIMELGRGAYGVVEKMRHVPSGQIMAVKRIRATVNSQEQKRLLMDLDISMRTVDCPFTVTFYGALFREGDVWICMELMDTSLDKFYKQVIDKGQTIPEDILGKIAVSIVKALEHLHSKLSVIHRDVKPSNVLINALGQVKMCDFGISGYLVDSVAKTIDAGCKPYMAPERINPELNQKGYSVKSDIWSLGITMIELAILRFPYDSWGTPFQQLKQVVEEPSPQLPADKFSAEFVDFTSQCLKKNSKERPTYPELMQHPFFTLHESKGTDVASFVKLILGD
# [13] = tested on: PBMC; test: Cytotoxicity against human PBMC cells assessed as reduction in cell viability; format: toxicity, cell-based
# [14] = target: Serine/threonine-protein kinase B-raf (Homo sapiens) (UniProt P15056); test: Inhibition of B-Raf (unknown origin) at 0.2 uM incubated for 40 mins by radiometric kinase assay relative to control
# [15] = tested on: P-glycoprotein; test: in vitro; conditions: human, Caco-2
# Description: Efflux ratio of apparent permeability across basolateral to apical side over apical to basolateral side in human Caco-2 cells incubated for 120 mins in presence of P-glycoprotein by LC-MS/MS analysis
# [16] = target: Serine/threonine-protein kinase PLK1 (Homo sapiens) (UniProt P53350); test: Inhibition of PLK1 (unknown origin) at 0.2 uM incubated for 40 mins by radiometric kinase assay relative to control
# [17] = target: Tyrosine-protein kinase ITK/TSK (Homo sapiens) (UniProt Q08881); test: Inhibition of ITK (unknown origin) at 0.2 uM incubated for 40 mins by radiometric kinase assay relative to control
# Tyrosine-protein kinase ITK/TSK (Homo sapiens), sequence (Q08881 whole entry): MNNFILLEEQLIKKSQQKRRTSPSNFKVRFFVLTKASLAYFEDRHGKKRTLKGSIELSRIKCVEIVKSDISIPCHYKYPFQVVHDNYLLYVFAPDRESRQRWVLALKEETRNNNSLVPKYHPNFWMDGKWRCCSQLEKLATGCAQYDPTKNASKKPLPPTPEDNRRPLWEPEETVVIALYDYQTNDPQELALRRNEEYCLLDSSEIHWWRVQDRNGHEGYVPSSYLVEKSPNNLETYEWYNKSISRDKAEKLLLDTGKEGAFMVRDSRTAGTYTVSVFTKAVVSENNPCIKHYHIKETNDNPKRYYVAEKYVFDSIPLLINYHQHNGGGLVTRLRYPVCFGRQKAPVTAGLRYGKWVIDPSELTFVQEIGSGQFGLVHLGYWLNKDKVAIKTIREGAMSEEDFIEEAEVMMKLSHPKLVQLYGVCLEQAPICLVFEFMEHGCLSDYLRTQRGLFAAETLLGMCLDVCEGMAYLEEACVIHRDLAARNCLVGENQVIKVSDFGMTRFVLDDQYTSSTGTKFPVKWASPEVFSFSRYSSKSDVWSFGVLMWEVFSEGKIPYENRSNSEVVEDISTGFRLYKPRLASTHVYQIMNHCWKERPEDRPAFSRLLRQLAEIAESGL
# [18] = target: Histone deacetylase (Homo sapiens) (UniProt Q13547+O15379+Q9UBN7+Q92769+Q9UQL6+Q8WUI4+Q9BY41+Q96DB2+P56524+Q9UKV0+Q969S8); test: Inhibition of HDAC (unknown origin) at 0.2 uM incubated for 40 mins by radiometric kinase assay relative to control; format: protein assay
# [19] = target: Serine/threonine-protein kinase mTOR (Homo sapiens) (UniProt P42345); test: Inhibition of mTOR (unknown origin) at 0.2 uM incubated for 40 mins by radiometric kinase assay relative to control
# [20] = tested on: JeKo-1; test: Induction of apoptosis in human JeKo-1 cells assessed as downregulation of Bcl-2 protein expression at 30 to 750 nM incubated for 72 hrs by Western blot analysis; format: functional, cell-based; conditions: dose 30-750 nM
# [21] = Acute toxicity in ICR mouse assessed as animal survival at 300 mg/kg, ip measured for 2 weeks; format: organism-based; conditions: in vivo
# [22] = tested on: K562; test: Potency index, ratio of sorafenib IC50 to test compound IC50 for antiproliferative activity against human K562 cells; format: functional
# [23] = target: Tyrosine-protein kinase Blk (Homo sapiens) (UniProt P51451); test: Inhibition of BLK (unknown origin) at 0.2 uM incubated for 40 mins by radiometric kinase assay relative to control
# Tyrosine-protein kinase Blk (Homo sapiens), sequence (P51451 2-505 limits assumed): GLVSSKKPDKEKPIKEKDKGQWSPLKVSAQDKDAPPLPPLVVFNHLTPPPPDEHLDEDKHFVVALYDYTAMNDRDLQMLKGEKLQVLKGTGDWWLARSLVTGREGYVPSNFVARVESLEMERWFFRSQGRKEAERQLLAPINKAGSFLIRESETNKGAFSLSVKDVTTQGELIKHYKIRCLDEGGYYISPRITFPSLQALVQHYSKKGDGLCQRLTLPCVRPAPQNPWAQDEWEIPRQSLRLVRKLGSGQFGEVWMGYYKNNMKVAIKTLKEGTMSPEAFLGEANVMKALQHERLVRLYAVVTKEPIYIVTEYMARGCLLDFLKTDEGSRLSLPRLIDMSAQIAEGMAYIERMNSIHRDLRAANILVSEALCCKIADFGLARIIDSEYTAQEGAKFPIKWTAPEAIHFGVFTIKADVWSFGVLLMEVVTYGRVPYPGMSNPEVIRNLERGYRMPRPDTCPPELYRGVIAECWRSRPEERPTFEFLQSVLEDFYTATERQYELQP
# [24] = tested on: MV4-11; test: Antitumor activity against human MV4-11 cells xenografted NOD/SCID mouse assessed as reduction in tumor weight at 10 mg/kg, ip administered once daily for 21 days; format: functional; conditions: time 21 day
# [25] = target: Tyrosine-protein kinase HCK (Homo sapiens) (UniProt P08631); test: Inhibition of HCK (unknown origin) at 0.2 uM incubated for 40 mins by radiometric kinase assay relative to control
# Tyrosine-protein kinase HCK (Homo sapiens), sequence (P08631 2-526 limits assumed): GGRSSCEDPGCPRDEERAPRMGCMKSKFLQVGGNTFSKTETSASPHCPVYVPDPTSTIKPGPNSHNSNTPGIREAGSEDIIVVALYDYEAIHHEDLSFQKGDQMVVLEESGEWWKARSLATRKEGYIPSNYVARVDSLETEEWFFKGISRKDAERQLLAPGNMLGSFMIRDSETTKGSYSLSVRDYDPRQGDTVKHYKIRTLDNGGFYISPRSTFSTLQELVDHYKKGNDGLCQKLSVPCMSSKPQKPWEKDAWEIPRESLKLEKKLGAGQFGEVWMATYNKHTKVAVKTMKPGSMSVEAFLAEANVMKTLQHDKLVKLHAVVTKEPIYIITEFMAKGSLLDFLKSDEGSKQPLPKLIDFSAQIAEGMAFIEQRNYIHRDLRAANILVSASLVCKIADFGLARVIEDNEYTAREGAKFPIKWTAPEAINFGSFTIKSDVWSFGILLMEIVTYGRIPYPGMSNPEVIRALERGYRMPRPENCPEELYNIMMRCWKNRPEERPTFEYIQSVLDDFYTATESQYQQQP
# [26] = tested on: K562; test: Potency index, ratio of spebrutinib IC50 to test compound IC50 for antiproliferative activity against human K562 cells; format: functional
# [27] = Acute toxicity in ip dosed ICR mouse assessed as lethal dose measured for 2 weeks; format: organism-based; conditions: in vivo
# [28] = tested on: MV4-11; test: Antitumor activity against human MV4-11 cells xenografted NOD/SCID mouse assessed as increase in tumor necrotic cells at 10 mg/kg, ip administered once daily for 21 days by H and E staining analysis; format: functional, organism-based; conditions: time 21.0 day
# [29] = target: 1-phosphatidylinositol 4,5-bisphosphate phosphodiesterase gamma-2 (Homo sapiens) (UniProt P16885); test: Inhibition of PLCgamma2 phosphorylation in human JeKo-1 cells incubated for 72 hrs by Western blot analysis; format: cell-based; conditions: dose 30-750 nM
# [30] = target: Receptor-type tyrosine-protein kinase FLT3 (Homo sapiens, UniProt P36888); test: Inhibition of FLT3 (unknown origin) incubated for 40 mins by radiometric kinase assay
# [31] = tested on: MV4-11; test: Potency index, ratio of sorafenib IC50 to test compound IC50 for antiproliferative activity against human MV4-11 cells; format: functional
# [32] = target: Tyrosine-protein kinase receptor TYRO3 (Homo sapiens) (UniProt Q06418); test: Inhibition of RSE (unknown origin) at 0.2 uM incubated for 40 mins by radiometric kinase assay relative to control
# [33] = tested on: MV4-11; test: Antitumor activity against human MV4-11 cells xenografted NOD/SCID mouse assessed as reduction in tumor weight at 20 mg/kg, ip administered once daily for 21 days; format: functional; conditions: time 21 day
# [34] = tested on: JeKo-1; test: Induction of apoptosis in human JeKo-1 cells assessed as early apoptotic cells at 750 nM incubated for 72 hrs by Annexin VFITC/PI staining based flow cytometry analysis (reference value: 3.10%); format: functional
smiles,measurement,setting,value
CN1CCN(c2ccc(Nc3ncc(F)c(Nc4ccccc4C(=O)NN)n3)cc2)CC1,Activity,[1],25.6%
same,Activity,[2],Dose-Dependent Effect
same,inhibition,[3],-10%
same,inhibition,[4],101%
same,inhibition,[5],79%
same,inhibition,[6],8%
same,Ratio IC50,[7],8
same,Ratio IC50,[8],6
same,Ratio IC50,[9],6
same,Ratio IC50,[10],1.3
same,inhibition,[11],3%
same,inhibition,[12],10%
same,Activity,[13],Non-Toxic
same,inhibition,[14],17%
same,efflux ratio at 2 h,[15],2.64
same,inhibition,[16],7%
same,inhibition,[17],65%
same,inhibition,[18],5%
same,inhibition,[19],-7%
same,Activity,[20],Active
same,survival at 336 h,[21],60%
same,Ratio IC50,[22],1.3
same,inhibition,[23],62%
same,Activity,[24],0.33 g
same,inhibition,[25],27%
same,Ratio IC50,[26],8
same,LD50 at 336 h,[27],343 mg/kg
same,Activity,[28],Active
same,inhibition,[29],Dose-Dependent Effect
same,IC50,[30],12 nM
same,Ratio IC50,[31],1.3
same,inhibition,[32],24%
same,Activity,[33],0.08 g
same,Activity,[34],37.89%
